Assay results taken from patent US20190127381A1, “SUBSTITUTED FUSED PYRIMIDINONE COMPOUNDS” (TORRENT PHARMACEUTICALS LIMITED, priority 2016, published 2019).

Key:
[1] = molecular target: T1, purified recombinant human PI3K enzyme δ (Homo sapiens, UniProt O00329); experiment: Inhibition of PI3-Kinase enzymatic activity (HTRF enzyme assay), δ; format: biochemical; conditions: 1 μM compound; PI3K δ 50 ng/well; PIP2 10 μM; ATP 200 μM; read-out: Percentage inhibition of PI3K activity, δ
T1 construct: purchased Invitrogen, USA
Protocol: (§1) Inhibition of PI3-Kinase enzymatic activity was determined using a homogeneous time-resolved fluorescence (HTRF) kit from Eurofins. 1 μM of Compounds of present invention were premixed with DMSO. The experiment was initiated by mixing 1.0% DMSO as vehicle/compounds with purified recombinant human PI3K enzyme {δ (50 ng/well); γ (100 ng/well)} (Invitrogen, USA) and substrate (PIP2, 10 μM) in the wells and incubation for 15 min at room temperature. There after ATP was added (δ at 200 μM, and γ at 50 μM) in to the wells containing reaction mixture, followed by re-incubation for 30 minutes at room temperature. Reaction was terminated by addition of a stopping solution and was further incubated for 4 hours at room temperature before reading using Envision multimode reader (Perkin Elmer). Percentage inhibition of PI3K activity was calculated by determining ratio of specific europium 665 nm energy transfer signal to reference 615 nm signals.

[2] = molecular target: T2, purified recombinant human PI3K enzyme γ (Homo sapiens, UniProt P48736); experiment: Inhibition of PI3-Kinase enzymatic activity (HTRF enzyme assay), γ; format: biochemical; conditions: 1 μM compound; PI3K γ 100 ng/well; PIP2 10 μM; ATP 50 μM; read-out: Percentage inhibition of PI3K activity, γ
T2 construct: purchased Invitrogen, USA
Protocol: as §1

T1 sequence (O00329 whole entry): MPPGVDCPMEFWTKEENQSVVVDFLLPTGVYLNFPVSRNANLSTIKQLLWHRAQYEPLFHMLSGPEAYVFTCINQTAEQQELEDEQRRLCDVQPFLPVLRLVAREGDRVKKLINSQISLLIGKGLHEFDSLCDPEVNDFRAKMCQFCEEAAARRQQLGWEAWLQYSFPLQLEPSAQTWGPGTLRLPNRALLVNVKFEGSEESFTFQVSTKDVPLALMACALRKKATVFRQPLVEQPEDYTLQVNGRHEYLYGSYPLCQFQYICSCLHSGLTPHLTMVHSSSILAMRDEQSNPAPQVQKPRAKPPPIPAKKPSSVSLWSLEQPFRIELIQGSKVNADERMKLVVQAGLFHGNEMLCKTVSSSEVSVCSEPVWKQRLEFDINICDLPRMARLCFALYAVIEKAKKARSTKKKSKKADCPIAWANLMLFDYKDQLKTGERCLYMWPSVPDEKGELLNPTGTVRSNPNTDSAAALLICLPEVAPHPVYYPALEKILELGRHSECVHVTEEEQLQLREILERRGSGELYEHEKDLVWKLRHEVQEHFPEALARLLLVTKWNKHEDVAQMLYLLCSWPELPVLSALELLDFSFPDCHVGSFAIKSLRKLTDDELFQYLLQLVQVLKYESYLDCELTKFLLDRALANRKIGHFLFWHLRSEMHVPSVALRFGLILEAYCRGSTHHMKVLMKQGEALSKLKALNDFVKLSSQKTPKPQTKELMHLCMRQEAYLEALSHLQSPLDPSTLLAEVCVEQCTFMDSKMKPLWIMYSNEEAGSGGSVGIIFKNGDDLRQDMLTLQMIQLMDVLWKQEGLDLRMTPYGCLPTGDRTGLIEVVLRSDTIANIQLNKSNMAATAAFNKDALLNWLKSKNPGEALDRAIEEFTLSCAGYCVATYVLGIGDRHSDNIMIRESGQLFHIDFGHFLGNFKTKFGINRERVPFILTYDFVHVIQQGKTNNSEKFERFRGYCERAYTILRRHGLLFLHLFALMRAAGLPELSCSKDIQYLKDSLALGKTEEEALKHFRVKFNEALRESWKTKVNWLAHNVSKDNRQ
T1 sequence (P27986 whole entry partner): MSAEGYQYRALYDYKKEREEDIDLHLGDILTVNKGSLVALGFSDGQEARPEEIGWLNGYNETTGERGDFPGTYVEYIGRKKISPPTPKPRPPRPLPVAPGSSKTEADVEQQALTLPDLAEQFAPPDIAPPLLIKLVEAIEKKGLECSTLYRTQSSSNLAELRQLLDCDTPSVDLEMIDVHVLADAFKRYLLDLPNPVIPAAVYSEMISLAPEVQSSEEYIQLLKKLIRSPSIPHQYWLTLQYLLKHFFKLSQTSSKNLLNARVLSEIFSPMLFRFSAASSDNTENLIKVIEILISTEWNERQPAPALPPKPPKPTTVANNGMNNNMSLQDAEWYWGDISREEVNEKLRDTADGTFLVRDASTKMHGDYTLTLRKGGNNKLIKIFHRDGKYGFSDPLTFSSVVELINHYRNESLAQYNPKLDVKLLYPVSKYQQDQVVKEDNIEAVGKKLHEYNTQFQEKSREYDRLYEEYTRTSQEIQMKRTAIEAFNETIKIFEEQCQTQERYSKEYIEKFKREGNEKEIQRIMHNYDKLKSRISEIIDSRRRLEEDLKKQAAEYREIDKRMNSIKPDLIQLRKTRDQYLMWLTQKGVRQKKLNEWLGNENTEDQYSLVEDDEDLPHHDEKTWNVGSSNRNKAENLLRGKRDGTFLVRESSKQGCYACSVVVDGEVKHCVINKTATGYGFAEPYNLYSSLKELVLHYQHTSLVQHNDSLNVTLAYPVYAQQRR
T2 sequence (P48736 whole entry): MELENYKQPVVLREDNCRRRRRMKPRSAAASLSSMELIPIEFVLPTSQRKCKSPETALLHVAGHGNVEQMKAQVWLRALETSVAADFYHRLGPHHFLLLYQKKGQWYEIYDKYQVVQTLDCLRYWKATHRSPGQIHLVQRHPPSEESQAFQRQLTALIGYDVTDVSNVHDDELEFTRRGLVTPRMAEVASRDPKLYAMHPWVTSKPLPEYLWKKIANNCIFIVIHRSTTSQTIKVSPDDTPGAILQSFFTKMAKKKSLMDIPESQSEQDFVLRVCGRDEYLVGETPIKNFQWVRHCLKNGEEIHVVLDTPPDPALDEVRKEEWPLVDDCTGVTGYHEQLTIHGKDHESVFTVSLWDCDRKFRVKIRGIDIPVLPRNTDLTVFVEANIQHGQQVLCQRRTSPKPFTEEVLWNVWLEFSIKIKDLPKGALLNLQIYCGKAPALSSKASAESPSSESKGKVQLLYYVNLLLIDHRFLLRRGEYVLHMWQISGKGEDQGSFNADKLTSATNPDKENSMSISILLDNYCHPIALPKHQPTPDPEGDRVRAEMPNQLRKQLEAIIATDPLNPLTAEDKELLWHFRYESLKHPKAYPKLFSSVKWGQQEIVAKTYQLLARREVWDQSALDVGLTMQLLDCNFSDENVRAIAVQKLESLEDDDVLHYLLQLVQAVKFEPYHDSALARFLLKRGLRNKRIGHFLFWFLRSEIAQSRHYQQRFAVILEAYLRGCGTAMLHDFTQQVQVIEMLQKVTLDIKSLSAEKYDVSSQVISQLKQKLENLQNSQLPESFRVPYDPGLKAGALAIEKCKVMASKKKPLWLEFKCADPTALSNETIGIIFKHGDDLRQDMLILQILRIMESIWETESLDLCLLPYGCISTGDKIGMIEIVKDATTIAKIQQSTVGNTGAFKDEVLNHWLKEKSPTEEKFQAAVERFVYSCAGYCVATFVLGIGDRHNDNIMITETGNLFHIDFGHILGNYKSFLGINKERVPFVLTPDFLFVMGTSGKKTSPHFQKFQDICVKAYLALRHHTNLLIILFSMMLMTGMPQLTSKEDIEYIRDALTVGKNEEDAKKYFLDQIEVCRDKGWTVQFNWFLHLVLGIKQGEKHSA

| SMILES | inhibition at 1 µM [1] [%] | inhibition at 1 µM [2] [%] |
| --- | --- | --- |
| Cc1cccc2nc(Cn3nc(-c4ccc(O)c5c4CC(C)(C)O5)c4c(N)ncnc43)n(-n3cccn3)c(=O)c12 [compound 7, 2-{[4-amino-3-(7-hydroxy-2,2-dimethyl-2,3-dihydro-1-benzofuran-4-yl)-1H-pyrazolo[3,4-d]pyrimidin-1-yl]methyl}-5-methyl-3-(1H-pyrazol-1-yl)quinazolin-4(3H)-one] | 80 to 100 | 60 to 80 |
| CC1(C)Cc2c(-c3nn(Cc4nc5cccc(-c6cccnc6)c5c(=O)n4C4(c5ccccc5)CC4)c4ncnc(N)c34)ccc(O)c2O1 [compound 16, 2-{[4-amino-3-(7-hydroxy-2,2-dimethyl-2,3-dihydro-1-benzofuran-4-yl)-1H-pyrazolo[3,4-d]pyrimidin-1-yl]methyl}-3-(1-phenylcyclopropyl)-5-(pyridin-3-yl)quinazolin-4(3H)-one] | 80 to 100 | 60 to 80 |
| Cc1ccccc1C1(n2c(Cn3nc(-c4ccc(O)c5c4CC(C)(C)O5)c4c(N)ncnc43)nc3cccc(C)c3c2=O)CC1 [compound 56, 2-{[4-amino-3-(7-hydroxy-2,2-dimethyl-2,3-dihydro-1-benzofuran-4-yl)-1H-pyrazolo[3,4-d]pyrimidin-1-yl]methyl}-5-methyl-3-[1-(2-methylphenyl)cyclopropyl]quinazolin-4(3H)-one] | 80 to 100 | 60 to 80 |
| CC1(C)Cc2c(-c3nn(Cc4nc5cccc(C#CCNC(=O)C6CC6)c5c(=O)n4-n4cccc4)c4ncnc(N)c34)ccc(O)c2O1 [compound 29, N-{3-[2-{[4-amino-3-(7-hydroxy-2,2-dimethyl-2,3-dihydro-1-benzofuran-4-yl)-1H-pyrazolo[3,4-d]pyrimidin-1-yl]methyl}-4-oxo-3-(1H-pyrrol-1-yl)-3,4-dihydroquinazolin-5-yl]prop-2-yn-1-yl}cyclopropanecarboxamide] | 80 to 100 | 80 to 100 |
| Cc1ccc(C)n1-n1c(Cn2nc(-c3ccc(O)c4c3CC(C)(C)O4)c3c(N)ncnc32)nc2ccccc2c1=O [compound 88, 2-{[4-amino-3-(7-hydroxy-2,2-dimethyl-2,3-dihydro-1-benzofuran-4-yl)-1H-pyrazolo[3,4-d]pyrimidin-1-yl]methyl}-3-(2,5-dimethyl-1H-pyrrol-1-yl)quinazolin-4(3H)-one] | 80 to 100 | 80 to 100 |
| Cc1ccc(C)n1-n1c(Cn2nc(-c3ccc(O)c4c3CC(C)(C)O4)c3c(N)ncnc32)nc2cccc(C#CCO)c2c1=O [compound 42, 2-{[4-amino-3-(7-hydroxy-2,2-dimethyl-2,3-dihydro-1-benzofuran-4-yl)-1H-pyrazolo[3,4-d]pyrimidin-1-yl]methyl}-3-(2,5-dimethyl-1H-pyrrol-1-yl)-5-(3-hydroxyprop-1-yn-1-yl)quinazolin-4(3H)-one] | 80 to 100 | 80 to 100 |
| CC1(C)Cc2c(-c3nn(Cc4nc5cccc(-c6ccsc6)c5c(=O)n4-n4cccc4)c4ncnc(N)c34)ccc(O)c2O1 [compound 14, 2-{[4-amino-3-(7-hydroxy-2,2-dimethyl-2,3-dihydro-1-benzofuran-4-yl)-1H-pyrazolo[3,4-d]pyrimidin-1-yl]methyl}-3-(1H-pyrrol-1-yl)-5-(thiophen-3-yl)quinazolin-4(3H)-one] | 80 to 100 | 80 to 100 |
| CC1(C)Cc2c(-c3nn(Cc4nc5cccc(Br)c5c(=O)n4C4(c5ccccc5)CC4)c4ncnc(N)c34)ccc(O)c2O1 [compound 13, 2-{[4-amino-3-(7-hydroxy-2,2-dimethyl-2,3-dihydro-1-benzofuran-4-yl)-1H-pyrazolo[3,4-d]pyrimidin-1-yl]methyl}-5-bromo-3-(1-phenylcyclopropyl)quinazolin-4(3H)-one] | 80 to 100 | 80 to 100 |
| COc1ccc(-c2nn(Cc3nc4cccc(C)c4c(=O)n3-n3c(C)ccc3C)c3ncnc(N)c23)c2c1OC(C)(C)C2 [compound 78, 2-{[4-amino-3-(7-methoxy-2,2-dimethyl-2,3-dihydro-1-benzofuran-4-yl)-1H-pyrazolo[3,4-d]pyrimidin-1-yl]methyl}-3-(2,5-dimethyl-1H-pyrrol-1-yl)-5-methylquinazolin-4(3H)-one] | 80 to 100 | 60 to 80 |
| CC1(C)Cc2c(-c3nn(Cc4nc5cccc(C#CCN6CCOCC6)c5c(=O)n4-n4cccc4)c4ncnc(N)c34)ccc(O)c2O1 [compound 35, 2-{[4-amino-3-(7-hydroxy-2,2-dimethyl-2,3-dihydro-1-benzofuran-4-yl)-1H-pyrazolo[3,4-d]pyrimidin-1-yl]methyl}-5-[3-(morpholin-4-yl)prop-1-yn-1-yl]-3-(1H-pyrrol-1-yl)quinazolin-4(3H)-one] | 80 to 100 | 60 to 80 |
| CC1(C)Cc2c(-c3nn(Cc4nc5cccc(C#CCN6CCOCC6)c5c(=O)n4C4(c5ccsc5)CC4)c4ncnc(N)c34)ccc(O)c2O1 [compound 72, 2-{[4-amino-3-(7-hydroxy-2,2-dimethyl-2,3-dihydro-1-benzofuran-4-yl)-1H-pyrazolo[3,4-d]pyrimidin-1-yl]methyl}-5-[3-(morpholin-4-yl)prop-1-yn-1-yl]-3-[1-(thiophen-3-yl)cyclopropyl]quinazolin-4(3H)-one] | 80 to 100 | 80 to 100 |
| CC1(C)Cc2c(-c3nn(Cc4nc5cccc(F)c5c(=O)n4C4(c5ccccc5)CC4)c4ncnc(N)c34)ccc(O)c2O1 [compound 26, 2-{[4-amino-3-(7-hydroxy-2,2-dimethyl-2,3-dihydro-1-benzofuran-4-yl)-1H-pyrazolo[3,4-d]pyrimidin-1-yl]methyl}-5-fluoro-3-(1-phenylcyclopropyl)quinazolin-4(3H)-one] | 80 to 100 | 40 to 60 |
| CC1(C)Cc2c(-c3nn(Cc4nc5cccc(-c6cccnc6)c5c(=O)n4-n4cccc4)c4ncnc(N)c34)ccc(O)c2O1 [compound 10, 2-{[4-amino-3-(7-hydroxy-2,2-dimethyl-2,3-dihydro-1-benzofuran-4-yl)-1H-pyrazolo[3,4-d]pyrimidin-1-yl]methyl}-5-(pyridin-3-yl)-3-(1H-pyrrol-1-yl)quinazolin-4(3H)-one] | 80 to 100 | 60 to 80 |
| Cc1cccc2nc([C@H](C)n3nc(-c4ccc(O)c5c4CC(C)(C)O5)c4c(N)ncnc43)n(-n3c(C)ccc3C)c(=O)c12 [compound 95, 2-{(1S)-1-[4-amino-3-(7-hydroxy-2,2-dimethyl-2,3-dihydro-1-benzofuran-4-yl)-1H-pyrazolo[3,4-d]pyrimidin-1-yl]ethyl}-3-(2,5-dimethyl-1H-pyrrol-1-yl)-5-methylquinazolin-4(3H)-one] | 80 to 100 | 80 to 100 |
| CC1(C)Cc2c(-c3nn(Cc4nc5cccc(C#CC6CC6)c5c(=O)n4-n4cccc4)c4ncnc(N)c34)ccc(O)c2O1 [compound 48, 2-{[4-amino-3-(7-hydroxy-2,2-dimethyl-2,3-dihydro-1-benzofuran-4-yl)-1H-pyrazolo[3,4-d]pyrimidin-1-yl]methyl}-5-(cyclopropylethynyl)-3-(1H-pyrrol-1-yl)quinazolin-4(3H)-one] | 80 to 100 | 80 to 100 |
| Cc1ccc(C)n1-n1c(Cn2nc(-c3ccc(O)c4c3CCC4)c3c(N)ncnc32)nc2cccc(-c3cnn(C)c3)c2c1=O [compound 93, 2-{[4-amino-3-(7-hydroxy-2,3-dihydro-1H-inden-4-yl)-1H-pyrazolo[3,4-d]pyrimidin-1-yl]methyl}-3-(2,5-dimethyl-1H-pyrrol-1-yl)-5-(1-methyl-1H-pyrazol-4-yl)quinazolin-4(3H)-one] | 80 to 100 | 80 to 100 |
| Cc1ccc(C2(n3c(Cn4nc(-c5ccc(O)c6c5CC(C)(C)O6)c5c(N)ncnc54)nc4cccc(C#CCO)c4c3=O)CC2)cc1 [compound 37, 2-{[4-amino-3-(7-hydroxy-2,2-dimethyl-2,3-dihydro-1-benzofuran-4-yl)-1H-pyrazolo[3,4-d]pyrimidin-1-yl]methyl}-5-(3-hydroxyprop-1-yn-1-yl)-3-[1-(4-methylphenyl)cyclopropyl]quinazolin-4(3H)-one] | 80 to 100 | 80 to 100 |
| Cn1cccc1-c1cccc2nc(Cn3nc(-c4ccc(O)c5c4CC(C)(C)O5)c4c(N)ncnc43)n(-n3cccc3)c(=O)c12 [compound 71, 2-{[4-amino-3-(7-hydroxy-2,2-dimethyl-2,3-dihydro-1-benzofuran-4-yl)-1H-pyrazolo[3,4-d]pyrimidin-1-yl]methyl}-5-(1-methyl-1H-pyrrol-2-yl)-3-(1H-pyrrol-1-yl)quinazolin-4(3H)-one] | 80 to 100 | 80 to 100 |
| Cc1ccc(C2(n3c(Cn4nc(-c5ccc(O)c6c5CC(C)(C)O6)c5c(N)ncnc54)nc4cccc(-c5ccnn5C)c4c3=O)CC2)cc1 [compound 40, 2-{[4-amino-3-(7-hydroxy-2,2-dimethyl-2,3-dihydro-1-benzofuran-4-yl)-1H-pyrazolo[3,4-d]pyrimidin-1-yl]methyl}-3-[1-(4-methylphenyl)cyclopropyl]-5-(1-methyl-1H-pyrazol-5-yl)quinazolin-4(3H)-one] | 80 to 100 | 60 to 80 |
